Reference: patent US20240217985A1, “CRYSTALLINE FORM OF AN MDM2-p53 INHIBITOR AND PHARMACEUTICAL COMPOSITIONS” (Boehringer Ingelheim International GmbH, priority 2022, published 2024)
Each block holds one molecule with its values, some of them ahead of it.

Columns and labels:
[1] = Aqueous solubility and BCS classification; format: physicochemical
[2] = Lipophilicity at physiological pH; format: physicochemical
[3] = Accelerated stress test, stability at 60°C/80% RH (XRPD and HPLC); format: physicochemical; details: for Impurity 1 / Impurity 2 / Impurity 3 / Impurity 4 / Impurity 5 / Total impurities: 60°C/80% RH open storage
Procedure: (§1) Crystalline materials of Compound A of the present invention were exposed to various temperature and humidity stress conditions and investigated by XRPD and HPLC in order to investigate their physical and chemical stability.
The crystalline form of Compound A of the present invention (prepared according to the procedure described in Example 1 and 3, respectively) was open stored under heat and humidity stress conditions of 60° C. and 80% RH for 3 days.
For example, the increase in total impurities of crystalline compound A obtained according to the procedure of Example 3 was below 0.5%. Table 9, provides the chemical stability data of the crystalline compound A obtained according to the procedure of Example 1.

[4] = Gravimetric moisture sorption; format: physicochemical; details: 0 to 90% relative humidity, 25.0°C
Procedure: The crystalline form of Compound A of the present invention was subjected to a gravimetric moisture sorption experiment using a DVS intrinsic moisture sorption analyzer (Surface Measurement System). The measurement was conducted in relative humidity steps of 10%. The time per step was set to a minimum of 5 minutes and a maximum of 6 hours. If an equilibrium condition with a constant mass of ±0.02% within 10 min was reached before the maximum time, the subsequent step was applied before the maximum time of 6 hours. If no equilibrium was achieved the consecutive humidity step was applied after the maximum time of 6 hours. The temperature was (25.0±0.1° C.)

[5] = tiny-TIM in vitro bioaccessibility under simulated fasted conditions; format: in vitro ADME
Procedure: A tiny-TIM system was used as a model for the simulation of the physiological processes occurring in human stomach and small intestine to study the in vitro bioaccessibility of the crystalline Compound A of the present invention (prepared according to the procedure described in Example 1) under simulated fasted conditions. Thereby, the impact of drug substance particle size distribution (PSD) and amorphous content on bioaccessibility was evaluated by using tablets manufactured from a range of drug substance batches with different amorphous contents and variations in PSD. The investigated drug products also cover extreme conditions such as low amorphous content and coarse PSD as well as high amorphous content and fine PSD.

[6] = Accelerated stress test, stability at 25°C/60% RH (XRPD and HPLC); format: physicochemical; details: Example 1 material; for Impurity 1 / Impurity 2 / Impurity 3 / Impurity 4 / Impurity 5 / Total impurities: 25°C/60% RH open storage
Procedure: as §1
The crystalline form of Compound A of the present invention (prepared according to the procedure described in Example 1) was open stored under humidity stress conditions of 25° C. and 60% RH for 6 months.

[7] = Accelerated stress test, stability at 70°C and 105°C (XRPD and HPLC); format: physicochemical; details: for Impurity 1 / Impurity 2 / Impurity 3 / Impurity 4 / Impurity 5 / Total Imp.: closed glass container
Procedure: as §1
The crystalline form of Compound A of the present invention (prepared according to the procedure described in Example 1) was stored in closed glass containers at heat stress condition of 70° C. for 3 weeks. In addition, the crystalline form of Compound A of the present invention (prepared according to the procedures described in Example 1 and 3, respectively) was stored in closed glass containers at heat stress condition of 105° C. for 24 hours.
For example, the increase in total impurities of crystalline compound A obtained according to the procedure of Example 3 was below 0.5%. Table 10, provides the chemical stability data of the crystalline compound A obtained according to the procedure of Example 1.

[8] = Accelerated stress test, stability at 40°C/75% RH (XRPD and HPLC); format: physicochemical; details: Example 1 material
Procedure: as §1
The crystalline form of Compound A of the present invention (prepared according to the procedure described in Example 1) was open stored under heat and humidity stress conditions of 40° C. and 75% RH for 6 months.

[9] = Example 1 material, open storage 60°C/80% RH, 3 days
[10] = Example 3 material, open storage 60°C/80% RH, 3 days
[11] = open storage 25°C/60% RH, 6 months
[12] = Example 1 material, 70°C, 3 weeks
[13] = Example 1 material, 105°C, 24 hours
[14] = Example 1 material, 70°C, 1 week
[15] = Example 1 material, 70°C, 2 weeks
[16] = Example 1 material, closed glass containers, 70°C, 3 weeks
[17] = Example 1 material, closed glass containers, 105°C, 24 hours
[18] = Example 3 material, closed glass containers, 105°C, 24 hours
[19] = initial, before 40°C/75% RH storage
[20] = open storage 40°C/75% RH, 6 months

aqueous solubility ([1]; across the physiological pH range): low
biopharmaceutical classification system class ([1]; class II = low solubility, high permeability): class II
lipophilicity [2]: lipophilic
SMILES: Cc1c(C(=O)O)ccc2c3n(nc12)[C@@H]1[C@H](C3)N(CC2CC2)[C@@]2(C(=O)Nc3cc(Cl)ccc32)[C@H]1c1cccc(Cl)c1F [Compound A, (2′S,3′S,3a′S,10a′S)-6-chloro-3′-(3-chloro-2-fluorophenyl)-1′-(cyclopropylmethyl)-6′-methyl-2-oxo-1,2,3′,3a′,10′,10a′-hexahydro-1′H-spiro[indole-3,2′-pyrrolo[2′,3′:4,5]pyrrolo[1,2-b]indazole]-7′-carboxylic acid]

Impurity 1 ([3]; Example 1 material, 3 days): 0.07%
Impurity 2 ([3]; Example 1 material, 3 days): ≤0.05%
Impurity 3 ([3]; Example 1 material, 3 days): 0.07%
Impurity 4 ([3]; Example 1 material, 3 days): 0.24%
Impurity 5 ([3]; Example 1 material, 3 days): 0.31%
Total impurities ([3]; Example 1 material, 3 days): 0.69%
Impurity 1 ([3]; Example 1 material, Start): 0.08%
Impurity 2 ([3]; Example 1 material, Start): 0.06%
Impurity 3 ([3]; Example 1 material, Start): ≤0.05%
Impurity 4 ([3]; Example 1 material, Start): 0.26%
Impurity 5 ([3]; Example 1 material, Start): 0.26%
Total impurities ([3]; Example 1 material, Start): 0.66%
stability under stress conditions (summary) ([3]; Example 1 material, 60°C/80% relative humidity, 3 days): stable
physical stability: XRPD of initial samples vs stressed samples [3, 9]: No differences in reflection positions
physical and chemical stability under stress conditions (summary) ([3]; Example 3 material, 60°C/80% relative humidity, 3 days): physically and chemically stable
increase in total impurities [3, 10]: below 0.5%
physical stability: XRPD of initial samples vs stressed samples [3, 10]: No differences in reflection positions
water uptake ([4]; material obtained from ACN/H2O (Example 3)): about 3.1 % (w/w)
water uptake ([4]; material obtained from IPA/H2O (Example 1)): about 3.6 % (w/w)
bioaccessibility profile, crystalline form versus amorphous Compound A ([5]; tablets): comparable bioaccessibility profiles
effect of PSD and amorphous content on bioaccessibility and concentration profiles ([5]; tablets from batches of Table 15 (amorphous content 6-75%, D50 3.6-25.0 μm)): did not have a significant effect
Impurity 1 ([6]; 1 month): 0.07%
Impurity 2 ([6]; 1 month): ≤0.05%
Impurity 3 ([6]; 1 month): 0.06%
Impurity 4 ([6]; 1 month): 0.23%
Impurity 5 ([6]; 1 month): 0.25%
Total impurities ([6]; 1 month): 0.61%
Impurity 1 ([6]; 2 months): 0.07%
Impurity 2 ([6]; 2 months): ≤0.05%
Impurity 3 ([6]; 2 months): 0.06%
Impurity 4 ([6]; 2 months): 0.23%
Impurity 5 ([6]; 2 months): 0.25%
Total impurities ([6]; 2 months): 0.61%
Impurity 1 ([6]; 3 months): 0.07%
Impurity 2 ([6]; 3 months): ≤0.05%
Impurity 3 ([6]; 3 months): ≤0.05%
Impurity 4 ([6]; 3 months): 0.23%
Impurity 5 ([6]; 3 months): 0.25%
Total impurities ([6]; 3 months): 0.60%
Impurity 1 ([6]; 6 months): 0.07%
Impurity 2 ([6]; 6 months): ≤0.05%
Impurity 3 ([6]; 6 months): 0.06%
Impurity 4 ([6]; 6 months): 0.23%
Impurity 5 ([6]; 6 months): 0.27%
Total impurities ([6]; 6 months): 0.63%
Impurity 1 ([6]; Start): 0.08%
Impurity 2 ([6]; Start): 0.06%
Impurity 3 ([6]; Start): ≤0.05%
Impurity 4 ([6]; Start): 0.26%
Impurity 5 ([6]; Start): 0.26%
Total impurities ([6]; Start): 0.66%
stability under stress conditions (summary) ([6]; 25°C/60% relative humidity, 6 months): stable
physical stability: XRPD of initial sample vs stressed sample [6, 11]: No differences in reflection positions
physical and chemical stability under temperature stress (summary) [7, 12]: physically and chemically stable
physical and chemical stability under temperature stress (summary) [7, 13]: physically and chemically stable
Impurity 1 [7, 14]: 0.07%
Impurity 2 [7, 14]: ≤0.05%
Impurity 3 [7, 14]: 0.07%
Impurity 4 [7, 14]: 0.24%
Impurity 5 [7, 14]: 0.26%
Total Imp. [7, 14]: 0.64%
Impurity 1 [7, 15]: 0.07%
Impurity 2 [7, 15]: ≤0.05%
Impurity 3 [7, 15]: 0.06%
Impurity 4 [7, 15]: 0.23%
Impurity 5 [7, 15]: 0.25%
Total Imp. [7, 15]: 0.61%
Impurity 1 [7, 12]: 0.07%
Impurity 2 [7, 12]: ≤0.05%
Impurity 3 [7, 12]: 0.07%
Impurity 4 [7, 12]: 0.24%
Impurity 5 [7, 12]: 0.31%
Total Imp. [7, 12]: 0.69%
Impurity 1 [7, 13]: 0.07%
Impurity 2 [7, 13]: ≤0.05%
Impurity 3 [7, 13]: 0.06%
Impurity 4 [7, 13]: 0.23%
Impurity 5 [7, 13]: 0.25%
Total Imp. [7, 13]: 0.61%
Impurity 1 ([7]; Example 1 material, Start): 0.08%
Impurity 2 ([7]; Example 1 material, Start): 0.06%
Impurity 3 ([7]; Example 1 material, Start): ≤0.05%
Impurity 4 ([7]; Example 1 material, Start): 0.26%
Impurity 5 ([7]; Example 1 material, Start): 0.26%
Total Imp. ([7]; Example 1 material, Start): 0.66%
chemical stability: impurity profiles of initial samples vs stressed samples [7, 16]: remained chemically stable
physical stability: XRPD of initial samples vs stressed samples [7, 16]: No differences in reflection positions
chemical stability: impurity profiles of initial samples vs stressed samples [7, 17]: remained chemically stable
physical stability: XRPD of initial samples vs stressed samples [7, 17]: No differences in reflection positions
physical and chemical stability under temperature stress (summary) ([7]; Example 3 material, 105°C, 24 hours): physically and chemically stable
increase in total impurities [7, 18]: below 0.5%
physical stability: XRPD of initial samples vs stressed samples [7, 18]: No differences in reflection positions
stability under accelerated stress conditions (summary) ([8]; 40°C/75% relative humidity, 6 months): stable
Impurity A, Initial Peak Area-% [8, 19]: 0.06%
Impurity B, Initial Peak Area-% [8, 19]: 0.06%
Impurity C, Initial Peak Area-% [8, 19]: 0.05%
Impurity D, Initial Peak Area-% [8, 19]: 0.23%
Impurity E, Initial Peak Area-% [8, 19]: 0.31%
Total impurities, Initial Peak Area-% [8, 19]: 0.71%
Impurity A, Peak Area-% at 6 months [8, 20]: Not detected
Impurity B, Peak Area-% at 6 months [8, 20]: 0.06%
Impurity C, Peak Area-% at 6 months [8, 20]: 0.06%
Impurity D, Peak Area-% at 6 months [8, 20]: 0.25%
Impurity E, Peak Area-% at 6 months [8, 20]: 0.33%
Total impurities, Peak Area-% at 6 months [8, 20]: 0.70%
physical stability: XRPD of initial sample vs stressed sample [8, 20]: No differences in reflection positions
SMILES: Cc1c(C(=O)O)ccc2c3n(nc12)[C@@H]1[C@H](C3)N(CC2CC2)[C@@]2(C(=O)Nc3cc(Cl)ccc32)[C@H]1c1cccc(Cl)c1F [crystalline form of Compound A, (2′S,3′S,3a′S,10a′S)-6-chloro-3′-(3-chloro-2-fluorophenyl)-1′-(cyclopropylmethyl)-6′-methyl-2-oxo-1,2,3′,3a′,10′,10a′-hexahydro-1′H-spiro[indole-3,2′-pyrrolo[2′,3′:4,5]pyrrolo[1,2-b]indazole]-7′-carboxylic acid]
chemical stability: impurity profiles of initial samples vs stressed samples [3, 9]: no significant increase of chemical impurities
chemical stability: impurity profile of initial samples vs stressed samples [6, 11]: no significant increase of chemical impurities
chemical stability: impurity profile of initial sample vs stressed sample [8, 20]: no significant increase of chemical impurities
